Results from US7179645B2 (priority 2002, dated 2007).
Read-outs that look alike come from different tables or passages of the source. Where a SMILES comes first, the peptide text is derived from it. [ ]: non-standard residue; d: D form. The star is where a group is joined. Nle = CCCC[C@H](N)C(=O)O; Cbz = O=C(OCc1ccccc1)*; ava = not defined here

How the values were obtained:
[1] = test system: primary mouse macrophages and macrophage-like cell lines; conditions: cited from earlier work
[2] = test system: early stage breast cancer patients; conditions: in vivo; cited from earlier work
[3] = test system: orthopoxviruses, including variola; conditions: cited from earlier work
[4] = test system: tumor cells expressing HLA-A24 and CEA; conditions: cited from earlier work
[5] = test system: HLA alleles of the A2 supertype (A2.2, A2.3, A2.6 and A6802); conditions: cited from earlier work
SJL/J (H-2s) mice = conditions: mouse, in vivo; cited from earlier work
[6] = test system: C3H/HeJ mice (H-2^k); antibodies against the PGCC(95–104) epitope peptide; conditions: mouse, in vivo
[7] = test system: C3H/HeJ mice (H-2^k); antibodies against the PGCC(95–104) epitope peptide; conditions: mouse, in vivo; remark: listed apart in the source
[8] = test system: patients with resected melanoma; conditions: human, in vivo; cited from earlier work
mice = conditions: mouse, in vivo; cited from earlier work
SKOV3.A2 = conditions: cited from earlier work
[9] = test system: lymphocytes from HLA-B7+ normal blood donors; conditions: cited from earlier work
[10] = test system: mice in an ovalbumin-induced asthmatic response; conditions: mouse, in vivo; cited from earlier work
[11] = test system: C3H/HeJ(H-2^k) mice; splenic T cells; format: in vivo, mouse; conditions: IFN-γ ELISPOT, C3H/HeJ(H-2^k) mice, spleens day 35, re-stimulated with HIV gp160(843–855) peptide
Method: An ELISPOT assay for IFN-γ cytokine responses was performed in order to titer more exactly splenic T lymphocyte subset responses to immunization with Ii-Key-ava-gp160(843–855) or gp160(843–855). The assay was performed as follows. A solution of the cytokine-specific capture antibody (100 μl at 6 μg/ml in phosphate-buffered saline solution, pH 7.2) was added to each well of a 96-well Immunospot plate (M200) for an overnight incubation at 4° C. After aspiration, phosphate-buffer saline solution 200 μl containing 10% fetal bovine serum and 1% penicillin-streptomycin-glutamine (mouse medium) was added to each well for 2 hr at RT. After washing four times with 1% Tween-20 in phosphate-buffered saline solution (wash buffer I), 100 μl of single cell suspensions from the spleens of immunized mice at 10^6 cells/well were re-stimulated with 100 μl of peptide-epitope at 5 μg/well in mouse medium and incubated for 20–40 hr at 37° C., 5% CO2. After washing twice with phosphate-buffered saline solution (wash buffer II) and four times with wash buffer 1,100 μl of 2 μg/ml biotinylated anti-mouse IFN-γ in 1× phosphate buffer saline with 10% fetal bovine serum (dilution buffer) was added to each well for 2 hr at RT. After washing five times with wash buffer 1,100 μl of streptavidin-horse radish peroxidase conjugate (1:500) in dilution buffer was added to each well for 1 hr at RT. After washing four times with wash buffer I and two times with wash buffer II, 100 μl of the 3-amino-9-ethylcarbazole/H2O2 substrate (Pharmingen 551951) was added and incubated for 30–60 min in the dark at RT. The reaction was stopped by washing three times with 200 μl of deionized water. ELISPOT data analysis was performed by using the Immunospot 1.7e software (Cellular Limited Technology). Digitized images of quadruplicate wells were analyzed for the presence of spots in which color density exceeds background based on comparison of control cells (naive splenocytes) and experimental cells (splenocytes of immunized mice) cells. Additional counting parameters for spot size and circularity were applied to gate out speckles caused by non-specific antibody binding. Each spot represents a single cell secreting IFN-γ.
C3H/HeJ(H-2^k) mice were immunized with 40 nmole of peptides (50 μl) emulsified with equal volume of incomplete Freund's adjuvant (IFA), subcutaneously at the base of the tail. On day 13 the mice were boosted subcutaneously at the base of the tail with 40 nmole of peptides (50 μl) emulsified with equal amount of incomplete Freund's adjuvant (IFA). On day 31, the mice were boosted intravenously with 40 nmole peptides dissolved in 100 μl Hank's balanced salts solution (HBSS). […]

[12] = test system: B10(A) 5R mice; splenic CD3+/CD4+ T-helper cells; format: in vivo, mouse; conditions: splenic cells day 26, double color FACS
From the text: To test the mechanism for the much greater immunogenecity of Ii-Key/epitope hybrids epitope peptides, B10(A) 5R mice were immunized with 10 nmole of either gp160(843–855) peptide or Ii-Key/gp160(843–855) in CFA subcutaneously at the right side of the base of the tail. On day 10 the mice were boosted with 40 nmole of hybrid peptide or epitope peptide in saline by intravenous injection. On day 26 mice were sacrificed and splenic cells were obtained. 1×10^6 splenic mononuclear cells were stimulated overnight in the presence of 10 units of recombinant IL-2 and indicated peptides (10 μg/ml). During the last 3 hours of incubation, 2 μM monensin (Golgi-stop, Pharmingen) was added to the cultures, and cells were then stained for both cellular surface markers and intracellular IFN-γ. The FACS assay to quantify antigen specific Th1 helper cell responses was performed as follows. The cells were incubated with 1 μg […] (FC/block, Pharmingen) per 10^6 cells in 100 μl of staining buffer (Dulbecco's phosphate-buffered saline solution without magnesium or calcium). Those cells were stained at 10^6 cells/100 μl with either rat-anti-mouse CD3 or CD4 monoclonal antibodies for 30 min at 4° C. After washing, the cells were re-suspended, fixed with 4% formaldehyde, and permeablized with 0.5% saponin for 20 min at 4° C. The cells were suspended in staining buffer with 0.5% saponin, and stained with the appropriate anti-cytokine or isotype control antibody (IFN-γ, XMG1.2, Pharmingen or IFN-γ isotype control, R3–34, Pharmingen). The cells were incubated for 30 min at 4° C. in the dark, washed and fixed for 10 min with 0.3% formaldehyde in 0.5% saponins in staining buffer for flow cytometric analysis. Flow cytometric analysis was performed as follows. First, CD3^+ cells were gated using dual color dot plot of side scatter versus CD3 FITC as the T-gate population. The CD3^+ cells were then analyzed for CD4 expression to target the CD3^+/CD4^+ T-helper cell population. […]

[13] = test system: MBP-specific autoantibodies in the CSF; conditions: human, in vivo; cited from earlier work

For `CC(=O)N[C@@H](CSC(=O)[C@]1([C@@H](O)C(C)C)NC(=O)[C@H](C)[C@@H]1O)C(=O)O` [lactacystin], the LeTx cytotoxicity [1] is listed as “efficiently block”.

For `CC/C(=C(\c1ccccc1)c1ccc(OCCN(C)C)cc1)c1ccccc1` [tamoxifen], the overall survival [2] is given as “benefited overall survival” and the survival [2] is given as “did not improve survival”.

For `Nc1ccn(C[C@@H](CO)OCP(=O)(O)O)c(=O)n1` [Cidofivir], the activity against orthopoxviruses [3] is listed as “shows activity”.

In the case of LMTFWNPPV [9.5.2], the “anti-tumor CTL responses” value [4] is listed as “induced vigorous anti-tumor CTL responses” and the “binding to other common HLA alleles of the A2 supertype” value [5] is listed as “bound tightly”.

In the case of HCLGKWLGHPDKFVGI [PL139–154], the “mice with severe clinical and histological EAE” value (SJL/J (H-2s) mice) is given as 3 of 20.

In the case of “Ac-LRMK-ava-IAYLKQATAK-NH2 (Ac-LRMK[ava]IAYLKQATAK-NH2; reading uncertain; also: printed as Ac-LRMK-ava-IAYLKQATAK-NH2) [Ii-Key/PGCC]”, the “Antibody induction (ELISA), Dilution^−1 1620” value [6] is reported as 0.071, the “Antibody induction (ELISA), Dilution^−1 4860” value [6] is reported as 0.024 and the “antibody titers against PGCC epitope” value [6] is reported as “Significantly greater antibody titers”. The “antibody titers against PGCC epitope” value [7] was “Significantly greater antibody titers”.

For YMDGTMSQV [tyrosinase(368–376)(370D)], the “patients developing a positive skin test response” value [8] is given as “none”.

In the case of MOG35–55, the “encephalitogenic potential (specific T-cell responses, EAE)” value (mice) is listed as “induced specific T-cell responses and EAE”.

For `CCCC[C@@H](C=O)NC(=O)[C@H](CC(C)C)NC(=O)[C@H](CC(C)C)NC(C)=O` [acetyl-Leu-Leu-norleucinal] (Ac-Leu-Leu-[Nle]-aldehyde), the “presentation of the CTL epitope Her-2/neu(369–377)” value (SKOV3.A2) is listed as “inhibited”.

For `CC(C)C[C@@H](C=O)NC(=O)[C@H](CC(C)C)NC(=O)[C@H](CC(C)C)NC(=O)OCc1ccccc1` [MG132] (Cbz-Leu-Leu-Leu-aldehyde), the LeTx cytotoxicity [1] is listed as “efficiently block”.

In the case of IPQQHTQVL [CEA9(632)], the “primary CTL responses” value [9] is listed as “induced primary CTL responses”.

In the case of ISQAVHAAHAEINAAGR [336E-A], the “airway eosinophilia and OVA-specific IL-4 and IL-5 production” value [10] is given as “significant decrease”.

In the case of gp160 (843–855) (LRMKAYRAIRHIPR), the “Number (mean number of spots and standard deviation in triplicate wells)” value [11] is reported as 5 (+/−3.6), the “Size (mean spot size and standard deviation)” value [11] is reported as 0.019 (+/−0.01) mm^2 and the “Percentage of cells CD3^+/IFN-γ^+” value [12] is reported as 2.05%. The “Percentage of cells CD4^+” value [12] was 31.03% and the “Percentage of cells CD4^+/IFN-γ^+” value [12] was 0.94%.

In the case of “P85VVHFFKNIVTP96 (PVVHFFKNIVTP; listed as Homo sapiens)”, the “neurological or systemic side effects” value [13] is listed as “No neurological or systemic side effects were observed” and the “tolerance to MBP” value [13] is listed as “induced tolerance”.
